Consider three compounds from patent US20030060397A1, “Method of treating and preventing acute neural lesions with substances that modulate the expression or function of a protein involved in the cell cycle and pharmaceutical preparations containing such substances” (priority 2000, published 2003).

The subject of test [1] is excitotoxic neuronal death induced by kainate. As to conditions: inhibitors of caspases; cited from earlier work.
The test system of the next test is cyclin D1. The test is described as follows: Western blot of cyclin D1 expression after exposure to kainate, normalized by class III β-tubulin. It is filed as cell-based, Wistar rats. As to conditions: kainate 75 μM, 100% before kainate. The procedure: After exposure of the hippocampus cells to kainate, the cells were washed in PBS then lysed in a Laemli buffer. The samples were subjected to sonication and heated at 100° C. for 5 minutes. Electrophoresis with a 12% SDS-polyacrylamide gel was then performed. The proteins were then transferred onto a nitrocellulose membrane and incubated with an anti-cyclin D1 monoclonal antibody or with an anti-CDK5 polyclonal antibody (Santa Cruz, Calif., USA) or with a class III anti-β-tubulin monoclonal antibody (Sigma, St. Louis, USA), a specific neuronal marker. Labeling was performed using the anti-rabbit antibody or anti-mouse antibody coupled to horseradish peroxidase using the ECLTM kit (Amersham Corp., England). The control experiments were performed by omitting the first antibodies.
A general note: A western blot detects proteins with antibodies after separation by electrophoresis.

The next test deals with hippocampus cells. The test is described as follows: Kainate-dependent neuronal death in primary hippocampus cell cultures (propidium iodine). Particulars: kainate 20 μM. It is filed as cell-based, Wistar rats. The protocol:
Neuronal death was analyzed by phase contrast microscopy and the use of two death markers: propidium iodine and Hoechst dye (Bisbenzimide).
Counting was performed on hippocampus cultures exposed to 20 μM of kainate. At least two dishes per condition were evaluated.

[2] abbreviates: 5 hours, in the absence of inhibitor.

For DEVD-CHO, the “prevention of excitotoxic neuronal death induced by kainate” value in test [1] was “can not be prevented”.

Consider YVAD-CHO, for which the “prevention of excitotoxic neuronal death induced by kainate” value in test [1] was “can not be prevented”.

For the compound `C=C(C)[C@H]1CN[C@H](C(=O)O)[C@H]1CC(=O)O` [kainate], in the test with cyclin D1, the “normalized level of expression of cyclin D1 (percentage of the control)” value is recorded as “more than 150%”. Further, in the test on hippocampus cells (setting [2]), the “augmentation of neuronal death in relation to the cultures without kainate” value is listed as 150% and the neuronal death was ~65%. In the test on hippocampus cells (propidium iodine), the “time of mortality peak” value was 5 h.
